Measured values taken from patent publication US5834461A, “Tricyclic benzazepine vasopressin antagonists” (American Cyanamid Company, priority 1997, dated 1998).

Legend:
[1] = biological target: T1, rat kidney medullary V2 receptors (Rattus norvegicus, UniProt Q00788); experiment: Binding Assay to Rat Kidney Medullary V2 Receptors; conditions: 10 μM; rat kidney; read-out: V2, % at concentration in brackets
T1 construct: Medullary tissues from rat kidneys are dissected out; from tissue; host or cells: rat kidney medulla membranes
Procedure, shortened: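 Competition binding: [3H]AVP at 0.8 nM, test compounds from 50% DMSO, and membranes from rat kidney medulla, left 120 min on the bench. Filtration then liquid scintillation counting measured bound ligand; 1.0 μM unlabeled ligand set non-specific binding.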

[2] = biological target: T2, oxytocin receptors (rat uterus membranes) (Rattus norvegicus, UniProt P70536); experiment: Oxytocin Receptor Binding; design: species or system female Sprague-Dawley rats; conditions: dose 10 μM
T2 construct: The resulting pellet containing the oxytocin receptors is resuspended; from tissue; host or cells: uterus membranes of DES-treated female Sprague-Dawley rats
T2 sequence (P70536 1-388): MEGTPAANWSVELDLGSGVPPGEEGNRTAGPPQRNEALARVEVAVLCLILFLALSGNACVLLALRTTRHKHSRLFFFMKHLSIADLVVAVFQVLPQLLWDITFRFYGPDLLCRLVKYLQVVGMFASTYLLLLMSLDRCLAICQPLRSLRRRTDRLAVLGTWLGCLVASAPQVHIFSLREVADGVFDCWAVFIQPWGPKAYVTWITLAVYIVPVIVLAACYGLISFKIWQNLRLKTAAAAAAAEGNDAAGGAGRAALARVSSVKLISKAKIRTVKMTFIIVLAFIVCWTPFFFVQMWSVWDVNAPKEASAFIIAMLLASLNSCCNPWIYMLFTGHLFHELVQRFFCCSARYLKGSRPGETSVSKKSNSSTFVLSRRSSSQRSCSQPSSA
Experimental: Female Sprague-Dawley rats weighing approximately 200-250 g are injected intramuscularly (i.m.) with 0.3 mg/kg of body weight of diethylstilbestrol (DES). The rats are sacrificed 18 hours later under pentobarbital anesthesia. The uteri are dissected out, cleaned of fat and connective tissues and rinsed in 50 ml of normal saline. The tissue pooled from six rats is homogenized in 50 ml of […] Tris.HCl, containing 0.5 mM dithiothreitol and 1.0 mM EDTA, adjusted to pH 7.4, using a polytron at setting 6 with three passes of 10 sec each. The homogenate is passed through two (2) layers of cheesecloth and the filtrate centrifuged at 1000×g for 10 min. The clear supernatant is removed and recentrifuged at 165,000×g for 30 min. The resulting pellet containing the oxytocin receptors is resuspended in 50.0 mM Tris.HCl containing 5.0 mM MgCl2 at pH 7.4, to give a protein concentration of 2.5 mg/ml of tissue suspension. This preparation is used in subsequent binding assays with [^3 H]Oxytocin.
Binding of 3,5-[^3 H]Oxytocin ([^3 H]OT) to its receptors is done in microtiter plates using [^3 H]OT, at various concentrations, in an assay buffer of 50.0 mM Tris.HCl, pH 7.4 and containing 5.0 mM MgCl2, and a mixture of protease inhibitors: BSA, 0.1 mg; aprotinin, 1.0 mg; 1,10-phenanthroline, 2.0 mg; […], 10.0 mg; and PMSF, 0.3 mg per 100 ml of buffer solution. Non-specific binding is determined in the presence of 1.0 uM unlabeled OT. The binding reaction is terminated after 60 min., at 22° C., by rapid filtration through glass fiber filters using a Brandel® cell harvester (Biomedical Research and Development Laboratories, Inc., Gaithersburg, Md.). Competition experiments are conducted at equilibrium using 1.0 nM [^3 H]OT and varying the concentration of the displacing agents. The concentrations of agent displacing 50% of [^3 H]OT at its sites (IC50) are calculated by a computer assisted LUNDON-2 program (LUNDON SOFTWARE INC., Ohio, USA).

[3] = biological target: vasopressin V1 receptor (rat liver plasma membranes) (Rattus norvegicus, UniProt P30560); experiment: Binding Assay to Rat Hepatic V1 Receptors; conditions: 2 h; 10 μM; rat hepatic; read-out: V1, % at concentration in brackets
[4] = test system: vasopressin V1; experiment: Vasopressin V1 Antagonist Activity in Conscious Rats (vasopressin vasopressor response); assay type: in vivo, rat (spontaneously hypertensive rats); conditions: 30 mg/kg i.v.
Procedure, shortened: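 Conscious rats had the ventral caudal tail artery cannulated into the lower abdominal aorta under local procaine anesthesia, plus a caudal vein cannula for intravenous dosing. Pulsatile blood pressure was recorded via a Statham P23Db transducer. Vasopressor responses to vasopressin injections were measured before and after compound dosing, with percent antagonism calculated relative to the pre-drug response taken as 100%.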

[5] = test system: vasopressin V2; experiment: Vasopressin V2 Antagonist Activity in Conscious Hydrated Rats (diuretic effect); assay type: in vivo, normal Sprague-Dawley rats; conditions: 10 mg/kg orally, AVP 0.4 μg/kg i.p.
Experimental: Conscious hydrated rats are treated with compounds under study from 0.1 to 100 mg/kg orally or vehicle. Two to four rats are used for each compound. One hour later, arginine vasopressin (AVP, antidiuretic hormore, ADH) dissolved in peanut oil is administered at 0.4 μg/kg intraperitoneally. Two rats in each test would not receive arginine vasopressin but only the vehicle (peanut oil) to serve as water-loading control. Twenty minutes later each rat is given 30 mL/kg of deionized water orally by gavage and is placed individually in a metabolic cage equipped with a funnel and a graduated glass cylinder to collect urine for four hours. Urine volume is measured and osmolality analyzed by use of a Fiske One-Ten osmometer (Fiske Assoc., Norwood, Mass., USA). Urinary sodium, potassium, and chloride are analyzed by use of ion-specific electrodes in a Beckman E3 (Electrolyte 3) Analyzer. In the following results, […] and decreased osmolality relative to AVP-control indicates activity.

T1 sequence (Q00788 whole entry): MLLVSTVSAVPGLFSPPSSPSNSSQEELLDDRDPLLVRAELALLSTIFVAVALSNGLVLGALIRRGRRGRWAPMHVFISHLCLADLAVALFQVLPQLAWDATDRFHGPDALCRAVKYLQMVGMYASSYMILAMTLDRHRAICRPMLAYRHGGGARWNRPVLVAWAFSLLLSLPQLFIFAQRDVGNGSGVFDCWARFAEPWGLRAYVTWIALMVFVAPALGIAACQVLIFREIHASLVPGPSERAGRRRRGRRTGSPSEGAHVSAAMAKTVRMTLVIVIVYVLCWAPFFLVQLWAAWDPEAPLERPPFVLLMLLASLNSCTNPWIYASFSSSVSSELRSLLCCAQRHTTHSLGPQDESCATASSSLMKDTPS
Sequence of vasopressin V1 receptor (rat liver plasma membranes) (P30560 whole entry): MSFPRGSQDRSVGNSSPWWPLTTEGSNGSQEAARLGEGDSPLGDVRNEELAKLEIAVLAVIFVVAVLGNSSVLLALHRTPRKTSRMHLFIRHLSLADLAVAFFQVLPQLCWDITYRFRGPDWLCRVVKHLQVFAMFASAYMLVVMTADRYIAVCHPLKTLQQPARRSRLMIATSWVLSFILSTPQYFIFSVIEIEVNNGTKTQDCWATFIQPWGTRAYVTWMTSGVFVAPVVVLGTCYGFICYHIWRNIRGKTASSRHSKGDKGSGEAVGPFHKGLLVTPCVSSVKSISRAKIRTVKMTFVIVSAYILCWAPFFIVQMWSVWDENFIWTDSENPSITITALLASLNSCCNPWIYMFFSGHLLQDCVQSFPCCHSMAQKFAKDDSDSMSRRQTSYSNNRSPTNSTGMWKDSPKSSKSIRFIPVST

inhibition at 10 µM [1] [%]	inhibition at 10 µM [2] [%]	inhibition at 10 µM [3] [%]	Structure (SMILES)	MAX % Inhibition [4] [%]	Time of max % inhibition [4] [min]	Osmolality [5] [mOsm/kg]	Urine Volume [5] [ml/4 hrs.]
81	2	99	Cc1ccccc1C(=O)Nc1ccc(C(=O)N2CCc3cnoc3-c3ccccc32)cc1 [Example 345, N-[4-[(4,5-Dihydro-6H-isoxazolo[4,5-d][1]benzazepin-6-yl)carbonyl]phenyl]-2-methylbenzamide]				
	15		Cc1ccccc1COC(=O)c1ccc(C(=O)N2Cc3ccccc3Cc3ccccc32)cc1 [Example 266, (2-Methylphenyl)methyl 4-[(6,11-dihydro-5H-dibenz[b,e]azepin-5-yl)carbonyl)benzoate]	21	120	1186	4.3
